Results from US20260327234A1, “NOVEL COMPOUNDS AS CYP11A1 INHIBITORS AND METHODS OF USE THEREOF” (Shenzhen Ionova Life Science Co., Ltd., priority 2023, published 2026).

Tests used:
CYP11A1 = biological target: T1, CYP11A1 (Homo sapiens, UniProt P05108); experiment: H295R Steroid Biosynthesis Inhibition Assay - inhibition of pregnenolone (P) production catalyzed by CYP11A1 in NCI-H295R cells; type: cell-based; details: 48 h, LC-MS/MS, read-out: Inh. of P IC50
T1 construct: measuring the cellular production of pregnenolone (P) catalyzed by CYP11A1; host or cells: NCI-H295R
T1 sequence (P05108 40-521): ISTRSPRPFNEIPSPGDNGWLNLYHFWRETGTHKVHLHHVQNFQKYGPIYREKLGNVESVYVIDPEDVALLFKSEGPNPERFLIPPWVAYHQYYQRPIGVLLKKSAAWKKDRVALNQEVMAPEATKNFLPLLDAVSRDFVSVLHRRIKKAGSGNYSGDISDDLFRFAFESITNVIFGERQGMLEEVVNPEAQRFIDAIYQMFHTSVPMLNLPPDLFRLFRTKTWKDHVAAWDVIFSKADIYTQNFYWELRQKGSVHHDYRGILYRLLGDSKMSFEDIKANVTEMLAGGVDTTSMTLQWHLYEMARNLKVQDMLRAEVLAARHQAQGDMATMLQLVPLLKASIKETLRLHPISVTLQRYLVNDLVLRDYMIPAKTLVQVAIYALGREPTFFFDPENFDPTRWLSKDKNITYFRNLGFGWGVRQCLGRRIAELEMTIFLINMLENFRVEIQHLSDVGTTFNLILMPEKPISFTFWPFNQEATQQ
Method: (§1) Steroid Biosynthesis Inhibition by test compounds in NCI-H295R cells (ATCC) was studied by measuring the cellular production of pregnenolone (P) catalyzed by CYP11A1 and the downstream steroid, testosterone (T). Cells were cultured in Dulbecco's modified eagle's medium F12 (DMEM/F12) with phenol red (Gibco, Cat. No. 11330032) supplemented with 2% UltroserG (Pall, Cat. No. 15950-017, USA), 1% ITS-Premix and 1% penicillin and streptomycin (Hyclone, Cat. No. SV30010, USA). Prior to the assay, cells were thawed and passed 4 times. The maximal passage number used for the assay was 10. For this assay, DMEM/F12 without phenol red supplemented with 10% charcoal-stripped fetal bovine serum (VivaCell, Cat. No. C3830-0500, USA) were used. In a 96-well plate, 60,000 cells/well were plated (90 μL/well) and incubated for 24 h. Test compounds, diluted in a serial dilution ranging from 1000 nM to 0.15 nM in the assay medium, were added to the plate. After 48 h of incubation, solution from each well were collected and transferred to individual 1.5 mL centrifuge tubes, and then 5 ng/mL deuterated testosterone (D3-testosterone) and 50 ng/mL deuterated pregnenolone (D4-pregnenolone) in 200 μL acetonitrile were added. After vigorously mixing for 5 min, the mixture was centrifuged at 12,700 rpm for 15 min. An aliquot of 250 μL supernatant was collected and dried under N2 stream. After addition of 150 μL Methanol:water (1:1, v/v) to the dried product, 50 μL sample of this solution was injected into the LC-MS/MS system for analysis.
(§2) The half-maximal inhibitory concentration (IC50) for steroid biosynthesis inhibition was determined by curve-fitting with the 4-variable inhibitory dose response equation using GraphPad Prism software.
(§3) Testosterone and pregnenolone were analyzed using Shimadzu LC30AD HPLC system (Shimadzu, Kyoto, Japan) coupled with AB SCIEX Qtrap 5500 triple quadrupole mass spectrometer (AB Sciex, Framingham, MA, USA) via ESI interface in the positive ionization mode. An ACQUITY UPLC BEH Shield RP18 column (1.7 μm, 2.1×50 mm, Milford, MA, USA) maintained at 40° C. was used to separate analytes and IS form the sample matrix.
(§4) The mobile phase was a mixture of 10 mM ammonium acetate in water containing 0.2% formic acid (A) and methanol containing 0.2% formic acid (B) at a flow rate of 0.6 mL/min. The gradient program was set as follows: from 0 min to 0.5 min, 60% B; from 0.5 min to 3.5 min, 90% B; from 3.5 min to 4.5 min, 90% B; from 4.51 min to 5.0 min, 60% B. The injection volume was […].
(§5) The MS/MS parameters were set as follows: ion spray voltage, 5500 V; curtain gas, 35 psi; Gas 1, 55 psi; Gas 2: 55 psi; temperature, […]. The optimized multiple reaction monitoring (MRM) fragmentation transitions and MS parameters of each analyte are summarized in Table 1.

[1] = biological target: T2, testosterone (T) production in NCI-H295R cells (Homo sapiens, UniProt P05108); experiment: H295R Steroid Biosynthesis Inhibition Assay - inhibition of testosterone (T) production in NCI-H295R cells; type: cell-based; details: 48 h, LC-MS/MS, read-out: Inh. of T IC50
T2 construct: testosterone measured by LC-MS/MS as downstream steroid
T2 sequence (P05108 40-521): T1 sequence (P05108 40-521)
Method: as §1, §2, §3, §4, §5

SMILES | IC50 (CYP11A1) | IC50 [1]
CNS(=O)(=O)c1ccc(-c2cc3oc(CN4Cc5ccccc5C4)cc(=O)c3o2)cc1 [Compound 51] | ≤ 40 nM | ≤ 40 nM
CS(=O)(=O)N1CCC(COc2coc(CN3CCn4cccc4C3)cc2=O)CC1 [Compound 3] | ≤ 40 nM | 41 to 100 nM
CS(=O)(=O)N1CCC(c2ncc3cc(CN4Cc5ccccc5C4)ccc3n2)CC1 [Compound 82] | ≤ 40 nM | 41 to 100 nM
CCNC(=O)N1CCC(c2cnc3cc(CN4Cc5ccccc5C4)ccc3n2)CC1 [Compound 116] | 40 to 100 nM | ≥ 101 nM
CS(=O)(=O)N1CCC(c2nc3cc(CN4Cc5ccccc5C4)ccc3s2)CC1 [Compound 128] | ≤ 40 nM | 41 to 100 nM
CCCS(=O)(=O)N1CCC(c2cnc3cc(CN4Cc5ccccc5C4)ccc3n2)CC1 [Compound 92] | ≤ 40 nM | ≤ 40 nM
CC(C)NC(=O)N1CCC(c2cnc3cc(CN4Cc5ccccc5C4)ccc3n2)CC1 [Compound 117] | 40 to 100 nM | ≥ 101 nM
CS(=O)(=O)N1CCC(c2cnc3cc(CN4Cc5ccc(F)cc5C4)ccc3n2)CC1 [Compound 87] | ≤ 40 nM | ≤ 40 nM
CS(=O)(=O)N1CCC(c2ccc3cc(CN4Cc5ccc(F)cc5C4)ccc3n2)CC1 [Compound 72] | ≤ 40 nM | ≤ 40 nM
CN(C)C(=O)[C@H]1CC[C@H](c2cc3oc(CN4Cc5ccccc5C4)cc(=O)c3o2)CC1 [Compound 47] | ≤ 40 nM | ≤ 40 nM
CS(=O)(=O)N1CCC(c2cc3oc(CN4Cc5ccc(C(F)(F)F)cc5C4)cc(=O)c3o2)CC1 [Compound 20] | ≤ 40 nM | ≤ 40 nM
O=c1cc(CN2Cc3ccccc3C2)oc2cc(C34CCC(O)(CC3)CC4)oc12 [Compound 34] | ≤ 40 nM | ≤ 40 nM
O=c1cc(CN2Cc3ccccc3C2)oc2cc([C@@H]3CCC[C@@H](O)CC3)oc12 (racemic) [Compound 42] | ≤ 40 nM | ≤ 40 nM
CS(=O)(=O)N1CCC(c2ccc3nc(CN4Cc5ccccc5C4)ccc3n2)CC1 [Compound 79] | ≤ 40 nM | ≤ 40 nM
CS(=O)(=O)N1CCC(c2cnc3cc(CN4Cc5ccccc5C4)ccc3c2)CC1 [Compound 69] | ≤ 40 nM | ≤ 40 nM
Cc1nc(C2CCN(S(C)(=O)=O)CC2)nc2ccc(CN3CCn4cccc4C3)cc12 [Compound 84] | ≥ 100 nM | ≥ 101 nM
O=C(C1CC1)N1CCC(c2cnc3cc(CN4Cc5ccccc5C4)ccc3n2)CC1 [Compound 102] | 40 to 100 nM | 41 to 100 nM
N#C[C@H]1CC[C@H](c2cc3oc(CN4Cc5ccccc5C4)cc(=O)c3o2)CC1 [Compound 48] | ≤ 40 nM | 41 to 100 nM
CS(=O)(=O)N1CCC(COc2ccc(C3(N4Cc5ccccc5C4)CC3)c3cccnc23)CC1 [Compound 10] | 40 to 100 nM | ≥ 101 nM
O=c1cc(CN2Cc3ccccc3C2)oc2cc(C3CCC(O)C3)oc12 (stereo not shown) [Compound 35] | ≤ 40 nM | 41 to 100 nM
CNC(=O)N1CCC(c2cnc3cc(CN4Cc5ccccc5C4)ccc3n2)CC1 [Compound 115] | ≤ 40 nM | ≤ 40 nM
CCS(=O)(=O)N1CCC(c2cnc3cc(CN4Cc5ccccc5C4)ccc3n2)CC1 [Compound 91] | ≤ 40 nM | ≤ 40 nM
O=S(=O)(c1ccccc1)N1CCC(c2cnc3cc(CN4Cc5ccccc5C4)ccc3n2)CC1 [Compound 98] | ≤ 40 nM | ≤ 40 nM
O=c1cc(CN2Cc3ccccc3C2)oc2cc(C3CC4(CC(O)C4)C3)oc12 (stereo not shown) [Compound 24] | ≤ 40 nM | ≤ 40 nM

SMILES | IC50 (CYP11A1) | IC50 [1]
CS(=O)(=O)N1CCC2(CC1)CC(c1cc3oc(CN4Cc5ccccc5C4)cc(=O)c3o1)C2 [Compound 22] | ≤ 40 nM | ≤ 40 nM
OC1CCN(c2ccc3cc(CN4Cc5ccccc5C4)ccc3n2)CC1 [Compound 74] | ≥ 100 nM | ≥ 101 nM
CC(C)OC(=O)N1CCC(c2cnc3cc(CN4Cc5ccccc5C4)ccc3n2)CC1 [Compound 112] | 40 to 100 nM | 41 to 100 nM
O=C(c1ncccn1)N1CCC(c2cnc3cc(CN4Cc5ccccc5C4)ccc3n2)CC1 [Compound 105] | 40 to 100 nM | ≥ 101 nM
CS(=O)(=O)N1CCC(c2cnc3cc(CN4Cc5ccccc5C4)ccc3n2)CC1 [Compound 55, 6-(isoindolin-2-ylmethyl)-2-(1-(methylsulfonyl)piperidin-4-yl)quinoxaline] | ≤ 40 nM | ≤ 40 nM
Cn1c(C2CCN(S(C)(=O)=O)CC2)nc2ccc(CN3Cc4ccccc4C3)cc2c1=O [Compound 63] | ≤ 40 nM | ≤ 40 nM
CS(=O)(=O)N1CCC(c2cc3cc(CN4Cc5ccccc5C4)ccc3o2)CC1 [Compound 126] | ≤ 40 nM | ≤ 40 nM
CS(=O)(=O)N1CC2(CC(c3cc4oc(CN5Cc6ccccc6C5)cc(=O)c4o3)C2)C1 [Compound 23] | ≤ 40 nM | ≤ 40 nM
CS(=O)(=O)N1CCCC(c2cc3oc(CN4Cc5ccccc5C4)cc(=O)c3o2)C1 (stereo not shown) [Compound 16] | 40 to 100 nM | ≥ 101 nM
CC(c1ncc(OCC2CCN(S(C)(=O)=O)CC2)c2ncccc12)N1Cc2ccccc2C1 (stereo not shown) [Compound 12] | ≤ 40 nM | ≤ 40 nM
CS(=O)(=O)N1CCC(c2cc3oc(CN4CCc5ccccc5C4)cc(=O)c3o2)CC1 [Compound 21] | ≥ 100 nM | ≥ 101 nM
Cn1ccc(C(=O)N2CCC(c3cnc4cc(CN5Cc6ccccc6C5)ccc4n3)CC2)n1 [Compound 106] | ≤ 40 nM | ≥ 101 nM
CS(=O)(=O)N1CCC(c2ccc3oc(CN4Cc5ccccc5C4)cc(=O)c3n2)CC1 [Compound 58] | ≤ 40 nM | ≤ 40 nM
O=c1cc(CN2Cc3ccccc3C2)oc2cc([C@H]3CC4CCC(C3)[C@H]4O)oc12 [Compound 33] | 40 to 100 nM | 41 to 100 nM
O=c1cc(CN2Cc3ccccc3C2)oc2cc([C@@H]3CCC[C@@H](O)C3)oc12 [Compound 36] | 40 to 100 nM | ≥ 101 nM
CS(=O)(=O)N1CCC(c2cc(=O)n3cc(CN4Cc5ccccc5C4)ccc3n2)CC1 [Compound 62] | 40 to 100 nM | ≥ 101 nM
CS(=O)(=O)N1C[C@@H]2[C@H](C1)[C@H]2c1cc2oc(CN3CCn4cccc4C3)cc(=O)c2o1 [Compound 53] | 40 to 100 nM | 41 to 100 nM
O[C@H]1CC[C@H](c2nc3cc(CN4Cc5ccccc5C4)ccc3o2)CC1 [Compound 127] | ≤ 40 nM | ≤ 40 nM
CS(=O)(=O)c1ccc(-c2cc3oc(CN4Cc5ccccc5C4)cc(=O)c3o2)cc1 [Compound 49] | ≤ 40 nM | ≤ 40 nM
Cc1oc(CN2Cc3ccccc3C2)cc(=O)c1OCC1CCN(S(C)(=O)=O)CC1 [Compound 6] | ≤ 40 nM | 41 to 100 nM
COc1nc(C2CCN(S(C)(=O)=O)CC2)nc2ccc(CN3Cc4ccccc4C3)cc12 [Compound 85] | ≤ 40 nM | ≤ 40 nM
CS(=O)(=O)N1CCC(c2cc3oc(CN4Cc5ccccc5C4)cc(=O)c3o2)CC1 [Compound 14] | ≤ 40 nM | ≤ 40 nM
CC(C)S(=O)(=O)N1CCC(c2cnc3cc(CN4Cc5ccccc5C4)ccc3n2)CC1 [Compound 94] | ≤ 40 nM | ≤ 40 nM
